Measurements taken from ChEMBL document CHEMBL1139094, “The synthesis and structure-activity relationship studies of selective acetyl-CoA carboxylase inhibitors containing 4-(thiazol-5-yl)but-3-yn-2-amino motif: polar region modifications” (Bioorg Med Chem Lett, 2007).

Key:
Acetyl-CoA carboxylase 2 = Acetyl-CoA carboxylase 2 (Homo sapiens, UniProt O00763); experiment: Inhibition of ACC2
Acetyl-CoA carboxylase 1 = Acetyl-CoA carboxylase 1 (Homo sapiens, UniProt Q13085); experiment: Inhibition of ACC1
Homo sapiens = species on record: Homo sapiens; experiment: Selectivity for human ACC2 over ACC1

Acetyl-CoA carboxylase 2, sequence (O00763 whole entry): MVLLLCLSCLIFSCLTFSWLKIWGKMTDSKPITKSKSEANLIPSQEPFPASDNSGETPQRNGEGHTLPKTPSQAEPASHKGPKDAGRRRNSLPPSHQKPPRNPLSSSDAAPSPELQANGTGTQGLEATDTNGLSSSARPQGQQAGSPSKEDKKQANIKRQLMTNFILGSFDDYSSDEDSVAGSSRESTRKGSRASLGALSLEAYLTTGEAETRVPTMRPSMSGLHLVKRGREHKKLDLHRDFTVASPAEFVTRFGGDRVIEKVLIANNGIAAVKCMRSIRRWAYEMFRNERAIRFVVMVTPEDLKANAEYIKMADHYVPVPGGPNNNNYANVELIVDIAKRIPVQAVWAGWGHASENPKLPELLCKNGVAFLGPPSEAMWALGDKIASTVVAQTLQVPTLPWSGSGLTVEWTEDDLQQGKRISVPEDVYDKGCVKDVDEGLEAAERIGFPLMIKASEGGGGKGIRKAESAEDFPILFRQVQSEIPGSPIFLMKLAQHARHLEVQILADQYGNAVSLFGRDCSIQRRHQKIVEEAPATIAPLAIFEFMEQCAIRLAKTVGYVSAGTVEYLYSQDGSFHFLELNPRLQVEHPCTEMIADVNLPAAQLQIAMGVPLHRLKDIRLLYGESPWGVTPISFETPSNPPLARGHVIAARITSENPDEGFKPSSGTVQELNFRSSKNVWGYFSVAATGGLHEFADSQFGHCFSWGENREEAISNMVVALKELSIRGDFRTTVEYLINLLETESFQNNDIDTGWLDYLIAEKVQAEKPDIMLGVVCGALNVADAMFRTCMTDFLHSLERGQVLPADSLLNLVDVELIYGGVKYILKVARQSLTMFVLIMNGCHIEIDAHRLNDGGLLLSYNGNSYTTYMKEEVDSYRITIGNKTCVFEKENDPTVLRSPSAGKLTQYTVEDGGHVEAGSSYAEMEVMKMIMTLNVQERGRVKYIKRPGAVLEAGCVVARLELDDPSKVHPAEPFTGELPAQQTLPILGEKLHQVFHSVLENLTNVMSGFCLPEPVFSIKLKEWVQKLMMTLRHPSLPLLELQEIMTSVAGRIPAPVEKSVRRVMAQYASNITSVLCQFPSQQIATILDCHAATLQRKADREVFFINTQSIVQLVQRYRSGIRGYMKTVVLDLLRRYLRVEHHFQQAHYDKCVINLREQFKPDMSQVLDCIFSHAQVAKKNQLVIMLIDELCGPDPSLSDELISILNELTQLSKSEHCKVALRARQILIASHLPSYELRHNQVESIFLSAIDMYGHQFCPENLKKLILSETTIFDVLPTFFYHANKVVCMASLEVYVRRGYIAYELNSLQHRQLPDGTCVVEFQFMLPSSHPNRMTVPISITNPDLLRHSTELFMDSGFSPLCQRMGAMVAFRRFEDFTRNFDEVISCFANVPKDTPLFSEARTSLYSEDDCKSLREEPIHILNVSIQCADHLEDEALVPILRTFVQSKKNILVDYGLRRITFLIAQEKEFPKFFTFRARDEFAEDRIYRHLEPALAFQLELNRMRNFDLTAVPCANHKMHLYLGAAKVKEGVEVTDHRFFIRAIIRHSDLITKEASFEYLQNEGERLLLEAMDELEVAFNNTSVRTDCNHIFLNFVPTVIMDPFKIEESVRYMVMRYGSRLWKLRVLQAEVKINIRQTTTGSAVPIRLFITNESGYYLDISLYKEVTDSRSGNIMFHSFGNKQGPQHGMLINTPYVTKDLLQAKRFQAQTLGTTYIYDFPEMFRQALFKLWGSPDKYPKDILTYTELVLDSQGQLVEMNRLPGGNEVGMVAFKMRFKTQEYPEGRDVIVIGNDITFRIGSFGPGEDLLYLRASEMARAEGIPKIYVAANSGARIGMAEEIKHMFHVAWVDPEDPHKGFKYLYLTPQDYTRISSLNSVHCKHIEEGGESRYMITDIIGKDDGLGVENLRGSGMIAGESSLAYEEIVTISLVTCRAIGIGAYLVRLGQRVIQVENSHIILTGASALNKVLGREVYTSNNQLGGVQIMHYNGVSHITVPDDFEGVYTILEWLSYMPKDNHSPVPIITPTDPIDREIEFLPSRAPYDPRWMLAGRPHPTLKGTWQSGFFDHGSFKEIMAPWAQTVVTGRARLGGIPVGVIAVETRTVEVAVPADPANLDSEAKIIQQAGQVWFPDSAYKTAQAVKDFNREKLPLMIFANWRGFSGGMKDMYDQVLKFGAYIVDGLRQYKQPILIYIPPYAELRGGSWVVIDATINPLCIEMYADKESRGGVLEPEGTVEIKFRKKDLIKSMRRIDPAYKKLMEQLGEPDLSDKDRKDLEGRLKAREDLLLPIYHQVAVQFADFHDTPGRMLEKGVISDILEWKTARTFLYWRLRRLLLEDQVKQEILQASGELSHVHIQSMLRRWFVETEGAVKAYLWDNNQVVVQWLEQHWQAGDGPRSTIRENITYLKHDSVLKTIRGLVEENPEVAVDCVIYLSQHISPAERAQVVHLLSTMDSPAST

Row | Compound | IC50 (Acetyl-CoA carboxylase 2) [nM] | IC50 (Acetyl-CoA carboxylase 1) [nM] | Ratio IC50 (Homo sapiens)
1 | CC(C#Cc1cnc(Oc2ccc(OC(C)C)cc2)s1)NC(=O)NO (stereo not drawn) | 330 | > 30000 | 
2 | CC(=O)NC(C)(C)C#Cc1cnc(Oc2ccc(OC(C)C)cc2)s1 | 500 | > 30000 | 
3 | CC(C#Cc1cnc(Oc2ccc(OC(C)C)cc2)s1)NC(=O)ON (stereo not drawn) | 680 | > 30000 | 
4 | CC(C#Cc1cnc(Oc2ccc(Oc3ccccc3)cc2)s1)N(O)C(N)=O (stereo not drawn) | 75 |  | > 1000
5 | CC(=O)NC(C#Cc1cnc(Oc2ccc(OC(C)C)cc2)s1)c1ccccc1 (stereo not drawn) | > 30000 | > 30000 | 
6 | CCC(C#Cc1cnc(Oc2ccc(OC(C)C)cc2)s1)NC(C)=O (stereo not drawn) | 530 | > 30000 | 
7 | CC(=O)NC(C#Cc1cnc(Oc2ccc(OC(C)C)cc2)s1)C1CC1 (stereo not drawn) | 880 |  | 
8 | CC(C#Cc1cnc(Oc2ccc(OC(C)C)cc2)s1)NC(=O)C1CCOC1 (stereo not drawn) | 220 | > 30000 | 
9 | CC(C#Cc1cnc(Oc2ccc(OC(C)C)cc2)s1)NC(=O)[C@@H]1CCCN1 (stereo partly drawn) | > 30000 | > 30000 | 
10 | COC(=O)C(=O)NC(C)C#Cc1cnc(Oc2ccc(OC(C)C)cc2)s1 (stereo not drawn) | 850 | > 30000 | 
11 | CC(C#Cc1cnc(Oc2ccc(OC(C)C)cc2)s1)NC(=O)NCC(N)=O (stereo not drawn) | 920 | > 30000 | 
12 | Cc1noc(NC(C)C#Cc2cnc(Oc3ccc(Oc4ccccc4)cc3)s2)c1C (stereo not drawn) | 38 | > 30000 | 
13 | CC(C#Cc1cnc(Oc2ccc(Oc3ccccc3)cc2)s1)Nc1ccon1 (stereo not drawn) | 42 | 5020 | 
14 | CC(C#Cc1cnc(Oc2ccc(OC(C)C)cc2)s1)NC(=O)N(C)C (stereo not drawn) | 71 | > 30000 | 
15 | Cc1cc(NC(C)C#Cc2cnc(Oc3ccc(Oc4ccccc4)cc3)s2)no1 (stereo not drawn) | 83 | > 30000 | 
16 | CC(C#Cc1cnc(Oc2ccc(OC(C)C)cc2)s1)NC(N)=O (stereo not drawn) | 37 | > 30000 | 
17 | CC(C#Cc1cnc(Oc2ccc(Oc3ccccc3)cc2)s1)Nc1nc2ccccc2s1 (stereo not drawn) | > 30000 | > 30000 | 
18 | CC(C#Cc1cnc(Oc2ccc(OC(C)C)cc2)s1)NC(=O)C1CCCC1 (stereo not drawn) | 570 | > 30000 | 
19 | CC(C#Cc1cnc(Oc2ccc(Oc3ccccc3)cc2)s1)Nc1ncc[nH]1 (stereo not drawn) | 3980 | > 30000 | 
20 | CC(C#Cc1cnc(Oc2ccc(OC(C)C)cc2)s1)NC(=O)N1CCOCC1 (stereo not drawn) | 670 | > 30000 | 
21 | CNC(=O)NC(C)C#Cc1cnc(Oc2ccc(OC(C)C)cc2)s1 (stereo not drawn) | 32 |  | 
22 | Cc1cc(NC(C)C#Cc2cnc(Oc3ccc(Oc4ccccc4)cc3)s2)on1 (stereo not drawn) | 57 | > 30000 | 
23 | CC(=O)NC(C#Cc1cnc(Oc2ccc(OC(C)C)cc2)s1)CO (stereo not drawn) | 910 | > 30000 | 
24 | CC(C#Cc1cnc(Oc2ccc(OC(C)C)cc2)s1)NC(=O)C(=O)O (stereo not drawn) | > 30000 | > 30000 | 
25 | CC(C)CONC(=O)NC(C)C#Cc1cnc(Oc2ccc(OC(C)C)cc2)s1 (stereo not drawn) | 20500 | > 30000 | 
26 | CC(C#Cc1cnc(Oc2ccc(Oc3ccccc3)cc2)s1)Nc1nccs1 (stereo not drawn) | 690 | 10700 | 
27 | CC(=O)NCC#Cc1cnc(Oc2ccc(OC(C)C)cc2)s1 | 1860 |  | 
28 | CCn1ccc(NC(C)C#Cc2cnc(Oc3ccc(Oc4ccccc4)cc3)s2)n1 (stereo not drawn) | 440 | > 30000 | 
